Among the test systems are KM20L2 colon; SNB-78 CNS; MDA-N; MDA-MB-435.
What all share (test): growth of human tumour cells (NCI), 48 h

Values joined by “and” are separate entries in the source; they are usually repeats but may differ in a detail not shown here. Equal values may be shown once.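 Five compound concentrations were applied to cells in 96-well plates for 48 hours; endpoints were derived by simple linear interpolation of the resulting dose-response curve. GI50 = concentration required for 50% inhibition of growth. TGI: concentration producing complete growth inhibition.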 *1 amine or outer side, *2 acyl side, *3 side chain or, on linkers, in order; H or OH if unused. Where a SMILES comes first, the peptide text is derived from it. Bridges are numbered along the chain shown (N, C = ends). [ ]: non-standard residue; d: D form. The star is where a group is joined. X19 = O=C([C@H](N[*:1])c1ccc(O[C@H]2O[C@@H](CO)[C@@H](O)[C@@H](O)[C@H]2O[C@@H]2O[C@H](CO)[C@H](O)[C@H](O)[C@@H]2O)cc1)[*:2]; X18 = NC(=O)[C@@H](O[*:3])[C@H](N[*:1])C(=O)[*:2]; X20 = O=C([C@H](N[*:1])c1ccc(O)c(Cl)c1)[*:2]; d(aThr) = C[C@@H](O)[C@@H](N)C(=O)O; dHpg = N[C@@H](C(=O)O)c1ccc(O)cc1; X17 = CC(C)C/C=C/C=C/C(=O)*; dOrn = NCCC[C@@H](N)C(=O)O

As for `Cc1[nH]c2ccccc2c1C1CC(=O)NC1=O` (configuration not stated), the TGI in the experiment on KM20L2 colon and in the experiment with SNB-78 CNS was more than 100 µM in each case.
With `CN(C)Cc1cccc(CN(C)C)[c]1[Sn]([Br])([c]1ccccc1)[c]1ccccc1`, the GI50 with MDA-N was 16.6 µM; in the experiment with MDA-MB-435, 17.1 µM. The results for the TGI in the experiment on MDA-N and in the experiment on MDA-MB-435 were 38.8 µM and 41.6 µM, respectively.
For `CC(=O)Nc1ccc2oc(=O)c3ccccc3c2c1`, the TGI with MDA-N and with MDA-MB-435 was more than 100 µM throughout.
As to `N=C1C(c2nc3ccccc3s2)=C(O)CN1c1ccc(Cl)cc1Cl`, in the experiment on MDA-MB-435, the GI50 is 16.5 µM and the TGI is more than 100 µM.
As to `N#Cc1ccc(-c2nc3ccc(Cl)cc3[nH]2)cc1`, the TGI in the experiment with MDA-N was more than 100 µM.
For `C#Cc1cccc(Nc2ncnc3ccc(-c4cnc(Cl)c(NS(C)(=O)=O)c4)cc23)c1`, in the experiment with MDA-MB-435, the GI50 was 0.383 µM and the TGI was found to be 2.34 µM.
With `C/C(=N\NS(=O)(=O)c1ccc(C)cc1)c1c(O)cc(C)oc1=O`, the TGI in the experiment on KM20L2 colon and in the experiment on SNB-78 CNS was more than 100 µM throughout.
For `COc1ccc(C(=O)C(Br)C(Br)C(=O)O)cc1` (configuration not stated), the TGI in the experiment on MDA-N and with MDA-MB-435 was more than 100 µM in each case.
In the case of `Cc1cccc2c1NC(=O)[C@@]21[C@H](C(=O)c2ccccc2)[C@]2(C(=O)Nc3ccccc32)[C@H]2CCCN21`, in the experiment with MDA-MB-435, the GI50 is 94.7 µM and the TGI is more than 100 µM.
For `O=c1ccccc(-c2ccc(-c3ccco3)cc2)c1O` the same measures were 1.85 µM and more than 100 µM.
Taken in the same sequence, the figures for `C[C@@H](Oc1cc(NS(=O)(=O)N2CCC2)nc(SCc2cccc(F)c2F)n1)[C@@H](O)CO` were more than 100 µM and more than 100 µM.
Consider `COC1CC2C=CC3C4OC2(/C(C)=C/C(C)C(C(C)O)OC1=O)C3C(O)C(C)C4OC(=O)c1ccc[nH]1` (configuration not stated), for which the TGI in the experiment on MDA-N and with MDA-MB-435 was more than 100 µM each time.
Regarding `CC1OC(O[C@H]2/C=C/C=C/C=C/C=C/C=C/C=C/C=C/[C@H](C)[C@@H](O)[C@@H](C)[C@H](C)OC(=O)C[C@H](O)C[C@H](O)CC[C@@H](O)[C@H](O)C[C@H](O)C[C@]3(O)C[C@H](O)[C@@H](C(=O)O)[C@H](C2)O3)C(O)C(N)C1O` (some centres not stated), the TGI in the experiment with MDA-N worked out at 24.4 µM; in the experiment on MDA-MB-435 it was 19.3 µM. Also, in the experiment on MDA-MB-435, the GI50 was 7.94 µM.
Take `Cc1ccc2c(N/N=C\c3ccco3)cc(C)nc2n1`: in the experiment on MDA-MB-435, the GI50 was 2.63 µM and the TGI was determined as 10.7 µM.
Turning to `COc1cc2c(Nc3ccc(Br)cc3F)ncnc2cc1OCC1CCN(C)CC1`, in the experiment on MDA-MB-435, the GI50 was 1.74 µM and 3.81 µM; the TGI is 3.61 µM and > 10 µM.
On to `NCC1OC(n2cnc3c(=O)[nH]c(N)nc32)C(O)C1O` (configuration not stated), for which the TGI in the experiment with MDA-N and in the experiment with MDA-MB-435 was more than 100 µM each time.
The compound `CC1Cc2c(N)nc(N3CCOCC3)nc2NC1=O` (configuration not stated) returned a TGI in the experiment on KM20L2 colon of more than 100 µM.
With `O=C(O[C@H]1CN[C@H](C#Cc2cc3ncnc(Nc4ccc(OCc5cccc(F)c5)c(Cl)c4)c3s2)C1)N1CCOCC1`, in the experiment with MDA-MB-435, the GI50 was 9.85 µM and the TGI was more than 25 µM.
Taken in the same sequence, the figures for `N#C/C(=C/C=C/c1ccccc1)S(=O)c1ccccc1` (configuration not stated) were 0.485 µM and 1.83 µM.
Taken in the same sequence, the figures for `N/C(=N\c1nc2ccccc2s1)NC(=O)Nc1ccccc1Cl` were 0.0269 µM and 0.0868 µM.
Taken in the same sequence, the figures for `CN(C)c1ccc2cc(-c3cc4c(oc3=O)-c3ccccc3OC4O)c(=O)oc2c1` (configuration not stated) were 3.67 µM and 15.9 µM.
For `C=C1SC(=Nc2ccccc2Cl)N(C(=O)c2sc3ccccc3c2Cl)C1(C)C`, in the experiment with MDA-MB-435, the GI50 was 17.3 µM and the TGI stood at 97 µM.
Regarding `Cc1ccc(C(=O)CCC2C(=O)CC(C)(C)CC2=O)cc1`, the TGI in the experiment on MDA-N and in the experiment on MDA-MB-435 was more than 100 µM each time.
In the case of `O=C1CC2C(=O)C1C(C(=O)O)C2C(=O)O` (configuration not stated), the TGI with MDA-N and in the experiment on MDA-MB-435 was more than 100 µM each time.
For `CN(C1=NS(=O)(=O)N=C(N(C)c2ccccc2)O1)c1ccccc1`, the TGI was found to be 32.6 µM with MDA-N and 30.4 µM in the experiment with MDA-MB-435.
Turning to `COc1c(B(O)O)cccc1-c1nc2c(F)cc3[nH]ncc3c2c2c1CCCC2`, in the experiment on MDA-MB-435, the GI50 was 0.287 µM and the TGI turned out to be 2.06 µM.
In the case of `NCCCn1c2c(c3cc4c(cc3c1=O)OCO4)C(=O)c1ccccc1-2`, in the experiment on MDA-MB-435, the GI50 was 0.567 µM and the TGI was 1.42 µM.
For `C/C=C1\C(=O)O[C@@H]2C1C[C@@H]1O[C@H]2[C@H](C)CCC/C(C)=C/CC[C@@]1(C)O` (some centres not stated) the same measures were 6.67 µM and 22.9 µM.
Taken in the same sequence, the figures for `O=C1/C=C/[C@@H](O)[C@@H]2C[C@@H](O)C[C@H]2/C=C/CCC[C@H](CO)O1` were 2.91 µM and more than 100 µM.
For `Oc1cccc(Cn2c(-c3cccc(O)c3O)nc3ccccc32)c1O` the same measures were 2.13 µM and 15.3 µM.
With `N#Cc1nn(C2OC(COC(=O)c3ccccc3)C(OC(=O)c3ccccc3)C2OC(=O)c2ccccc2)c2nc[nH]c(=O)c12` (configuration not stated), the TGI with MDA-N and with MDA-MB-435 was more than 100 µM throughout.
For `CCC1CCCCN1C(=S)N/N=C(\C)c1ccccn1` (configuration not stated), in the experiment with MDA-MB-435, the GI50 is 0.127 µM and the TGI was found to be 1.79 µM.
For `O=C1/C(=C/c2ccccc2)CN(CCC(=O)N2C/C(=C\c3ccccc3)C(=O)/C(=C/c3ccccc3)C2)C/C1=C\c1ccccc1` the same measures were 0.683 µM and 5.68 µM.
Turning to `COc1ccc(-c2nc(N)c3ncn(C4OC(CO)C(O)C4O)c3n2)cc1` (configuration not stated), the TGI in the experiment with MDA-N and in the experiment with MDA-MB-435 was more than 100 µM throughout.
As for `CCC(c1ccc(OC)cc1)C(CC)c1ccc(O)c(CN2CCCC2)c1` (configuration not stated), in the experiment with MDA-MB-435, the GI50 was 2.01 µM and the TGI came to 4.76 µM.
For `O=C1c2cccc3cc([N+](=O)[O-])cc(c23)C(=O)N1CCN1CCCC1` the same measures were 1.31 µM and 2.99 µM.
Taken in the same sequence, the figures for `CCCCNC(=O)Oc1ccc2c(=O)c3sc4c(=O)c5ccccc5c(=O)c4c3c(=O)c2c1` were 0.172 µM and 0.328 µM.
As to `O=S(=O)(NCCCNc1cc(-c2cn(-c3ccccc3)nc2-c2cccc(O)c2)ccn1)c1cccc2ccccc12`, in the experiment on MDA-MB-435, the GI50 was 3.48 µM and the TGI stood at 37.4 µM.
For `Cc1cccc2c1O/C(=C\c1ncc([N+](=O)[O-])n1C)C2=O` the same measures were 0.153 µM and 0.35 µM.
Consider `COc1cccc(-c2nc(-c3ccc(NC(=O)c4ccccc4)cc3)[nH]c2-c2ccnc(Br)c2)c1`, for which, in the experiment with MDA-MB-435, the GI50 was 4.72 µM and the TGI was more than 100 µM.
As for `CC(C)C/C=C/C=C/C(=O)N[C@@H](CC(N)=O)C(=O)N[C@@H]1C(=O)N[C@H](c2ccc(O)cc2)C(=O)N[C@H](CCCN)C(=O)N[C@H]([C@@H](C)O)C(=O)N[C@H](c2ccc(O)cc2)C(=O)N[C@H](c2ccc(O)cc2)C(=O)N[C@H]([C@H](C)O)C(=O)N[C@H](Cc2ccccc2)C(=O)N[C@H](CCCN)C(=O)N[C@H](c2ccc(O[C@H]3O[C@@H](CO)[C@@H](O)[C@@H](O)[C@H]3O[C@@H]3O[C@H](CO)[C@H](O)[C@H](O)[C@@H]3O)cc2)C(=O)N[C@H]([C@H](C)O)C(=O)N[C@H](c2ccc(O)cc2)C(=O)NCC(=O)N[C@H](CC(C)C)C(=O)N[C@H](C)C(=O)N[C@H](c2ccc(O)c(Cl)c2)C(=O)O[C@@H]1C(N)=O` (X17-N[X18][dHpg][dOrn][d(aThr)][dHpg][dHpg][dT][dF][dOrn][X19][dT][dHpg]G[dL][dA][X20]; ester 2-C), in the experiment with MDA-MB-435, the GI50 was 26 µM and the TGI amounted to 72.8 µM.
For the compound `COc1ccccc1N1CCN(C(=O)c2ccc(NS(=O)(=O)c3cccc4cccnc34)cc2)CC1`, in the experiment with MDA-MB-435, the GI50 is more than 100 µM and the TGI is more than 100 µM.
Turning to `CC(C)(C)N1CC(OC(N)=O)C1`, in the experiment on MDA-MB-435, the GI50 was more than 100 µM and the TGI was more than 100 µM.
Turning to `O=C1C(Cl)=C(Nc2cccc(O)c2)C(=O)N1c1cccc(Cl)c1`, in the experiment with MDA-MB-435, the GI50 was 43 µM and the TGI was more than 100 µM.
For `CCn1cc(C(=O)N/N=C/c2cccc(F)c2)c(=O)c2cc(F)c(N3CCNC(C)C3)c(F)c21` (configuration not stated) the same measures were 1.71 µM and 3.12 µM.
Taken in the same sequence, the figures for `O=C(Nc1ccc(Cl)cc1)c1cc2cc(F)ccc2cc1O` were 1.96 µM and 8.8 µM.
For `COc1ccc(-c2csc(NC(=O)N3CCN(c4cc5c(cc4F)c(=O)c(C(=O)O)cn5C4CC4)CC3)n2)cc1` the same measures were 2.54 µM and more than 100 µM.
Consider `CNC(=O)c1cncc(/C=C/c2c(C)cccc2C)c1`, for which, in the experiment on MDA-MB-435, the GI50 was more than 25 µM and the TGI is more than 25 µM.

(Values after PubChem BioAssay (NCI).)
